Test results taken from patent US12649751B2 (Arcus Biosciences, Inc., priority 2022, dated 2026).
Like-named read-outs stand apart in the source and are kept apart here.

Tests used:
HPK1 = HPK1 (Homo sapiens, UniProt Q92918); assay: HPK1 Biochemical Assay (ADP-Glo luminescence; low ATP 10 μM or high ATP 200 μM)
[1] = tested on: p-SLP-76 (Ser376) in Jurkat cells; assay: pSLP76 Cellular Assay (AlphaLISA SureFire Ultra p-SLP-76 (Ser376), anti-CD3 activated Jurkat cells); format: cell-based; conditions: Homo sapiens, read-out: Cellular Potency
In short: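 Read-out is AlphaLISA p-SLP-76 (Ser376) signal at 570 nm in Jurkat lysates, with IC50 fitted by 4-parameter logistic. Cells were starved overnight, exposed 1 h at 37 °C to 22 twofold compound dilutions in HBSS, then activated 45 min with anti-CD3 (0.025 mg/ml stock added).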

[2] = 2 nM HPK1, 10 μM ATP, read-out: Biochemical Potency (low ATP)
[3] = Jurkat cells, anti-CD3 stimulation, pSLP76
[4] = HPK1 ADP-Glo assay, high ATP (200 μM ATP, 5 nM HPK1), read-out: Biochemical Potency (high ATP)
[5] = pSLP76 (Ser376) AlphaLISA, anti-CD3 activated Jurkat cells

Sequence of HPK1 (Q92918 whole entry, species assumed): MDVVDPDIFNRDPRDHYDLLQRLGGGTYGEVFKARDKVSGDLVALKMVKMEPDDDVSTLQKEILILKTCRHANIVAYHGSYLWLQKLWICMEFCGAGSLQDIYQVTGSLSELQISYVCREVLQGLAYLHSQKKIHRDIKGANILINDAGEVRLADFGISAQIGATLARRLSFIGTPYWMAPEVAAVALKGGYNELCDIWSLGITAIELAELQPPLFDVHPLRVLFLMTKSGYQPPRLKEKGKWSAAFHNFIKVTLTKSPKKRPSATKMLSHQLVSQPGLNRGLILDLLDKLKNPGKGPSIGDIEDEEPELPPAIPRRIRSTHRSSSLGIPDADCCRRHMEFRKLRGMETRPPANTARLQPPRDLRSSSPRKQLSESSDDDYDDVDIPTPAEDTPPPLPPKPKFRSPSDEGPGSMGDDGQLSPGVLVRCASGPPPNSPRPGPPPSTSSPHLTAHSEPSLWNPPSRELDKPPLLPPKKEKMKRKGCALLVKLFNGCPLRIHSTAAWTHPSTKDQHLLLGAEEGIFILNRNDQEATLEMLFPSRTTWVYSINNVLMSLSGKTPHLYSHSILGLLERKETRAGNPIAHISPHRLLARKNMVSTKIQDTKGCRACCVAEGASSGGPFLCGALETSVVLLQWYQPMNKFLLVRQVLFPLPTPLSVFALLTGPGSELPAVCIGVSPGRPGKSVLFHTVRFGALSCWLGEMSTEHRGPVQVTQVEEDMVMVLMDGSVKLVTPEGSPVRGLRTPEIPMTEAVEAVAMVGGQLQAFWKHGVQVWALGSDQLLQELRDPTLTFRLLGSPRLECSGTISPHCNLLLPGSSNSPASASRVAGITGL

IC50 (HPK1; [2]) [nM] | IC50 [1, 3] [nM] | IC50 (HPK1; [4]) [nM] | IC50 [1, 5] [nM] | IC50 (HPK1; HPK1 ADP-Glo assay, low ATP (10 μM ATP, 2 nM HPK1), read-out: Biochemical Potency (low ATP)) [nM] | SMILES
– | – | < 100 | < 100 | – | Cc1cc(Nc2cc3nc(-c4cnn5c4CN(S(C)(=O)=O)CC5)sc3cn2)nc(N2C[C@@H]3C[C@H]2CN3C)n1 [Example 570]
– | – | < 100 | < 100 | – | CCN1C[C@@H]2C[C@H]1CN2c1nc(C)cc(Nc2cc3nc(-c4cccc(C(=O)N5CCC[C@H](C)C5)c4)sc3cn2)n1 [Example 512]
– | – | < 100 | 1000 to 5000 | – | Cc1cc(Nc2cc3nc(-c4cnn(C5CCN(S(C)(=O)=O)CC5)c4)sc3cn2)nc(N2C[C@@H]3C[C@H]2CN3C)n1 [Example 572]
– | – | < 100 | 100 to 1000 | – | CCN1C[C@@H]2C[C@H]1CN2c1nc(C)cc(Nc2cc3nc(-c4cccc(C(=O)N5CCC[C@@H](C)C5)c4)sc3cn2)n1 [Example 511]

The next lines start with the molecule.

SMILES | IC50 (HPK1; [2]) [nM] | IC50 [1, 3] [nM] | IC50 (HPK1; [4]) [nM] | IC50 [1, 5] [nM] | IC50 (HPK1; HPK1 ADP-Glo assay, low ATP (10 μM ATP, 2 nM HPK1), read-out: Biochemical Potency (low ATP)) [nM]
CC(C)(N)c1nc(Nc2cc3nc(-c4c(F)cccc4F)sc3cn2)ccc1N1CCC(F)(F)C1 [Example 271, 6-(2-Aminopropan-2-yl)-N-[2-(2,6-difluorophenyl)-[1,3]thiazolo[5,4-c]pyridin-6-yl]-5-(3,3-difluoropyrrolidin-1-yl)pyridin-2-amine] | < 100 | 1000 to 5000 | – | – | –
Cc1cc(Nc2cc3nc(-c4cccc(S(=O)(=O)N5CCCC5)c4)sc3cn2)nc(N2C[C@@H]3C[C@H]2CN3CCO)n1 [Example 344] | – | – | < 100 | < 100 | –
Cc1cccnc1-c1nc2cc(Nc3ccc(Cl)c(N4C[C@@H]5C[C@H]4CN5C)n3)ncc2s1 [Example 110, 5-Chloro-6-[(1S,4S)-5-methyl-2,5-diazabicyclo[2.2.1]heptan-2-yl]-N-[2-(3-methylpyridin-2-yl)-[1,3]thiazolo[5,4-c]pyridin-6-yl]pyridin-2-amine] | < 100 | 100 to 1000 | – | – | –
CN1C[C@@H]2C[C@H]1CN2c1cncc(Nc2cc3nc(-c4cccc(C(C)(O)C(F)(F)F)c4)sc3cn2)n1 (some centres unmarked) [Example 410] | – | – | < 100 | 100 to 1000 | < 100
Cc1cc(Nc2cc3nc(-c4cnn(C)c4-c4ccccc4)sc3cn2)nc(N2C[C@@H]3C[C@H]2CN3C)n1 [Example 368] | – | – | < 100 | 100 to 1000 | –
Cc1cccnc1-c1nc2cc(Nc3ccc(C)c(N4C[C@@H]5C[C@H]4CN5)n3)ncc2s1 [Example 84, 6-[(1S,4S)-2,5-Diazabicyclo[2.2.1]heptan-2-yl]-5-methyl-N-[2-(3-methylpyridin-2-yl)-[1,3]thiazolo[5,4-c]pyridin-6-yl]pyridin-2-amine] | < 100 | 100 to 1000 | – | – | –
Cc1ccc(Nc2cc3nc(-c4ncccc4C)sc3cn2)nc1CN1CC[C@H](F)C1 [Example 43, 6-{[(3S)-3-Fluoropyrrolidin-1-yl]methyl}-5-methyl-N-[2-(3-methylpyridin-2-yl)-[1,3]thiazolo[5,4-c]pyridin-6-yl]pyridin-2-amine] | < 100 | > 5000 | – | – | –
Fc1cccc(F)c1-c1nc2cc(Nc3ccc(N4CCOCC4)c(CN4CCCC4)n3)ncc2s1 [Example 17, N-[2-(2,6-Difluorophenyl)-[1,3]thiazolo[5,4-c]pyridin-6-yl]-5-(morpholin-4-yl)-6-[(pyrrolidin-1-yl)methyl]pyridin-2-amine] | < 100 | 1000 to 5000 | – | – | –
Cc1cc(Nc2cc3nc(-c4cnn(CC5CCCCO5)c4)sc3cn2)nc(N2C[C@@H]3C[C@H]2CN3C)n1 (some centres unmarked) [Example 363] | – | – | < 100 | 100 to 1000 | –
Cc1cccnc1-c1nc2cc(Nc3ccc([C@H]4CCOC4)c(CN4CCCC4)n3)ncc2s1 (single isomer, unassigned) [Example 258, N-[2-(3-Methylpyridin-2-yl)-[1,3]thiazolo[5,4-c]pyridin-6-yl]-5-[(3R or 3S)-oxolan-3-yl]-6-[(pyrrolidin-1-yl)methyl]pyridin-2-amine] | < 100 | 100 to 1000 | – | – | –
